From PMC9299836 (eLife, 2022)
Where “and” joins values, the source holds several entries; their conditions need not be identical. Equal values may be shown once.

Legend:
mGluR2 [1] = biological target: mGluR2 (Mus musculus, UniProt Q14BI2, A548F); test: Live-cell FRET, azi-CRD (cysteine-rich domain) sensor in HEK293T cells; conditions: for azi-CRD normalized FRET response, Mean / azi-CRD normalized FRET response, individual cell: Glutamate + 10μM modulator (NAM); for azi-CRD normalized FRET response, Mean: maximal response normalized to 1mM glutamate; for azi-CRD normalized FRET response, individual cell: single-cell replicate
Sequence of mGluR2 (Mus musculus, UniProt Q14BI2, A548F) (Q14BI2 19-872 A548F): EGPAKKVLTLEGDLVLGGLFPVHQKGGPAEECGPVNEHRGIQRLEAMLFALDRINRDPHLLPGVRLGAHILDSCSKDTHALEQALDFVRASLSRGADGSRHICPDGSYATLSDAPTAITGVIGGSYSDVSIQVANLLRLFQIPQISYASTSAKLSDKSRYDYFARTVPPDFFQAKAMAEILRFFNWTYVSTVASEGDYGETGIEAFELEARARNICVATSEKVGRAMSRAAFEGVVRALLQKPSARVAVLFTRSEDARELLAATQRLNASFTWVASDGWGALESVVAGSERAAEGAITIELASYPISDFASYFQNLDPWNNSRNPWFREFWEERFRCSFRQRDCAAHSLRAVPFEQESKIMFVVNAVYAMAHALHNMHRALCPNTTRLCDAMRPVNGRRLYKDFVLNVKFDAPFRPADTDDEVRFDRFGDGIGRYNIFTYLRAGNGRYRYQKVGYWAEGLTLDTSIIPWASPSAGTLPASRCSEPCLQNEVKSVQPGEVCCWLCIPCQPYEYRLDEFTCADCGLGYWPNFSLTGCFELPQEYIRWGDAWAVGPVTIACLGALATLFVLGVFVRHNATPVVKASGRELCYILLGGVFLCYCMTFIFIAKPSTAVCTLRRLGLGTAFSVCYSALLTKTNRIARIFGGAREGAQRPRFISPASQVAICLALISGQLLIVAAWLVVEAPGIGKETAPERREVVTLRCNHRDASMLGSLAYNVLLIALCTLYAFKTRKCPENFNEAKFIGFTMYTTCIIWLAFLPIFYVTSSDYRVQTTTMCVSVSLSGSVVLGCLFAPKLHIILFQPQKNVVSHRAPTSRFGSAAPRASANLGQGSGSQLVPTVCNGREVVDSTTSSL

mGluR2 [2] = biological target: T1, mGluR2 (Mus musculus, UniProt Q14BI2); test: Live-cell FRET, SNAP-m2 (VFT domain) inter-subunit sensor in HEK293T cells; conditions: for Mean normalized FRET response, SNAP-m2 NAM DRC: glutamate + 10μM modulator, maximal response normalized to 1mM glutamate;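 as to all read-outs here: apparent FRET efficiency from whole-membrane ROIs of single cells, corrected for donor bleed-through and background, ΔFRET as treatment minus pretreatment signal, recorded at room temperature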
T1 sequence (Q14BI2 19-872): as the sequence (Q14BI2 19-872 A548F) above, with F530A counted along it

mGluR2 [3] = biological target: mGluR2 (Mus musculus, UniProt Q14BI2, INS715F); test: Live-cell FRET, azi-ECL2 (7TM domain, extracellular loop 2) sensor in HEK293T cells; conditions: for Mean normalized azi-ECL2 FRET response: glutamate + 10μM modulator, maximal response normalized to 1mM glutamate;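 as to all read-outs here: Cy3/Cy5 click-labeled sensor, whole-membrane ROIs per cell, apparent FRET after bleed-through correction, ΔFRET as treatment minus pre-treatment signal, at room temperature, at least three biological replicates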
Sequence of mGluR2 (Mus musculus, UniProt Q14BI2, INS715F) (Q14BI2 with tags, fused parts or gaps INS715F): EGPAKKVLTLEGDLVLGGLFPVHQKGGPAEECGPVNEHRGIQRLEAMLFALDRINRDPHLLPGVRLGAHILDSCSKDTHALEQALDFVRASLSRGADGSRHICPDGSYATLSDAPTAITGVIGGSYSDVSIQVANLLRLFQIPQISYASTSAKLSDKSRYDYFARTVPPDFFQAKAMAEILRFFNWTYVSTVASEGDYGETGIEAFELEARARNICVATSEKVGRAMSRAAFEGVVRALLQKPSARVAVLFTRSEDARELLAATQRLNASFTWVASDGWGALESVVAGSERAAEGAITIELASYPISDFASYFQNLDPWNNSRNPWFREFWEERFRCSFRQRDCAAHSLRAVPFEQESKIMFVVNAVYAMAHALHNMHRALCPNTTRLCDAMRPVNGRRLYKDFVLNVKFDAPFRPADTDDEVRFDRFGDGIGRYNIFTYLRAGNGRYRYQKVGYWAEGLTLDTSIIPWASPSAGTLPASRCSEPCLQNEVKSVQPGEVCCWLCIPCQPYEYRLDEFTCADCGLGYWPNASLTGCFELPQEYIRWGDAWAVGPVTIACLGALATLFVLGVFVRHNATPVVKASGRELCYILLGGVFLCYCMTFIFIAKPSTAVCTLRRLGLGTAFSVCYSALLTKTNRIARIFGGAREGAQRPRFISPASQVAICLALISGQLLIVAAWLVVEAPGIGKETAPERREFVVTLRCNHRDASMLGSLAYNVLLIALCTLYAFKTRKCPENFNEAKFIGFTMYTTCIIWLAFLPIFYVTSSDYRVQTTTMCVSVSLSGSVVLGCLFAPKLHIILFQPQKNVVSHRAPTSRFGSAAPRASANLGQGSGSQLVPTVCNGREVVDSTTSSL

mGluR2 [4] = biological target: T1, mGluR2; test: Functional calcium imaging, SNAP-mGluR2 (no FLAG-tag) with chimeric G protein Gqo5 in HEK293T cells; format: cell-based; set-up: Full length mGluR2 construct with an amber codon (TAG) mutation of amino acid A548 (azi-CRD) or N-terminal SNAP-tag (SNAP-mGluR2); host or cells: HEK293T; conditions: for Intracellular Ca2+ Response (normalized to 1mM glutamate), Mean: Glutamate + 90nM Ro 64-5229
[5] = 10μM Ro 64-5229, ([1 mM glutamate + modulator] - [1 mM glutamate]) × 100

## Clc1cccc(Cl)c1/C(=C/n1cncn1)OC1CCCCCC1 [Ro 64–5229]
mGluR2 [1]; [5]
  azi-CRD - ΔEfficacy, Mean ΔEfficacy: -41.4006
mGluR2 [1]; 10μM Ro 64-5229, single cells
  azi-CRD - ΔEfficacy, individual cell responses: -28.0702 and -27.0053 and -21.7759 and -17.8571 and -54.2848 and -56.1085 and -49.8998 and -39.7625 and -52.6646 and -45.8685 and -32.6644 and -42.4305 and -51.9931 and -35.5526 and -41.2702 and -37.27 and -50.0412 and -60.6915
mGluR2 [1]; log[Glutamate] (M) -3
  azi-CRD normalized FRET response, Mean: 0.586
  azi-CRD normalized FRET response, individual cell: 0.586
mGluR2 [1]; log[Glutamate] (M) -4.1549
  azi-CRD normalized FRET response, Mean: 0.5093
  azi-CRD normalized FRET response, individual cell: 0.5346 and 0.4622 and 0.5203 and 0.5084 and 0.5826 and 0.5517 and 0.4974 and 0.5062 and 0.5143 and 0.4926 and 0.4963 and 0.4643 and 0.4905
mGluR2 [1]; log[Glutamate] (M) -4.52288
  azi-CRD normalized FRET response, Mean: 0.3977
  azi-CRD normalized FRET response, individual cell: 0.3335 and 0.3611 and 0.3991 and 0.4165 and 0.5072 and 0.4352 and 0.378 and 0.3755 and 0.3785 and 0.4157 and 0.3821 and 0.3693 and 0.4189
mGluR2 [1]; log[Glutamate] (M) -5
  azi-CRD normalized FRET response, Mean: 0.2248
  azi-CRD normalized FRET response, individual cell: 0.1496 and 0.3033 and 0.2652 and 0.2455 and 0.317 and 0.2125 and 0.1682 and 0.183 and 0.1871 and 0.1831 and 0.172 and 0.2951 and 0.2409
mGluR2 [1]; log[Glutamate] (M) -5.39794
  azi-CRD normalized FRET response, Mean: 0.1255
  azi-CRD normalized FRET response, individual cell: 0.1184 and 0.1898 and 0.1288 and 0.1204 and 0.1285 and 0.1251 and 0.1085 and 0.1183 and 0.1305 and 0.09889 and 0.1192 and 0.1155 and 0.1302
mGluR2 [1]; log[Glutamate] (M) -5.82391
  azi-CRD normalized FRET response, Mean: 0.06192
  azi-CRD normalized FRET response, individual cell: 0.04987 and 0.1052 and 0.0682 and 0.05385 and 0.04969 and 0.05654 and 0.05788 and 0.05365 and 0.05774 and 0.05311 and 0.05405 and 0.04746 and 0.09767
mGluR2 [1]; log[Glutamate] (M) -6.52288
  azi-CRD normalized FRET response, Mean: 0.03074
  azi-CRD normalized FRET response, individual cell: 0.03117 and 0.03301 and 0.02778 and 0.02217 and 0.02741 and 0.0634 and 0.03617 and 0.02751 and 0.02353 and 0.01178 and 0.01113 and 0.04333 and 0.04124
mGluR2 [1]; log[Glutamate] (M) -7
  azi-CRD normalized FRET response, Mean: 0
  azi-CRD normalized FRET response, individual cell: 0
mGluR2 [1]; azi-CRD sensor, + 10 μM modulator
  Hill slope of glutamate titration: 1.05
mGluR2 [1]; azi-CRD sensor, Glutamate + 10μM Ro 64-5229, individual values (N=18)
  Live-cell FRET max response normalized to 1mM glutamate: 0.4572 and 0.4389 and 0.501 and 0.6024 and 0.4733 and 0.5413 and 0.6734 and 0.5757 and 0.4801 and 0.6445 and 0.5873 and 0.6273 and 0.4996 and 0.3931 and 0.7193 and 0.7299 and 0.7822 and 0.8214
mGluR2 [1]; azi-CRD, 1 mM glutamate + 10 μM modulator, normalized to 1 mM glutamate
  Mean max response (normalized max ΔFRET): 0.59
mGluR2 [1]; azi-CRD, 10μM modulator, (([modulator + glutamate]EC50 – [glutamate] EC50)/[glutamate] EC50) × 100
  Mean ΔPotency: 46.1673
mGluR2 [1]; azi-CRD, 10μM modulator, calculated from individual cell responses
  ΔPotency, individual cell: 111.788 and 54.4953 and 84.4604 and 80.2661 and 72.5435 and 46.8592 and 26.2598 and 27.1246 and 2.91 and 18.4766 and 20.2062 and -17.7582
mGluR2 [2]; [5]
  SNAP-m2 - ΔEfficacy, Mean ΔEfficacy: -12.5077
mGluR2 [2]; SNAP-m2, 1 mM glutamate + 10 μM modulator, normalized to 1 mM glutamate
  Mean max response (normalized max ΔFRET): 0.87
mGluR2 [2]; SNAP-m2, 10μM modulator, (([modulator + glutamate]EC50 – [glutamate] EC50)/[glutamate] EC50) × 100
  Mean ΔPotency: 64.9494
mGluR2 [2]; SNAP-m2, 10μM modulator, ([1 mM glutamate + modulator] - [1 mM glutamate]) × 100
  Mean ΔEfficacy: -12.5077
mGluR2 [2]; SNAP-m2 sensor, + 10 μM modulator
  Hill slope of glutamate titration: –1.52
mGluR2 [2]; log[Glutamate] (M) -3
  Mean normalized FRET response, SNAP-m2 NAM DRC: -0.8749
mGluR2 [2]; log[Glutamate] (M) -4.1549
  Mean normalized FRET response, SNAP-m2 NAM DRC: -0.7502
mGluR2 [2]; log[Glutamate] (M) -4.52288
  Mean normalized FRET response, SNAP-m2 NAM DRC: -0.5932
mGluR2 [2]; log[Glutamate] (M) -5
  Mean normalized FRET response, SNAP-m2 NAM DRC: -0.2293
mGluR2 [2]; log[Glutamate] (M) -5.39794
  Mean normalized FRET response, SNAP-m2 NAM DRC: -0.07065
mGluR2 [2]; log[Glutamate] (M) -5.82391
  Mean normalized FRET response, SNAP-m2 NAM DRC: -0.0217
mGluR2 [2]; log[Glutamate] (M) -6.52288
  Mean normalized FRET response, SNAP-m2 NAM DRC: 0
mGluR2 [2]; log[Glutamate] (M) -7
  Mean normalized FRET response, SNAP-m2 NAM DRC: 0
mGluR2 [2]; log[Glutamate] (M) -7.69897
  Mean normalized FRET response, SNAP-m2 NAM DRC: 0
mGluR2 [2]; log[Glutamate] (M) -4.69897
  Mean normalized FRET response, SNAP-m2 NAM DRC: -0.4605
mGluR2 [3]; [5]
  azi-ECL2 - ΔEfficacy, Mean ΔEfficacy: -16.382
mGluR2 [3]; 10μM modulator, (([modulator + glutamate]EC50 – [glutamate] EC50)/[glutamate] EC50) × 100
  Mean ΔPotency: 238.581
mGluR2 [3]; 10μM modulator, single cells, (([modulator + glutamate]EC50 – [glutamate] EC50)/[glutamate] EC50) × 100
  ΔPotency, individual cell responses: 105.749 and 188.087 and 277.044 and 382.546 and 239.476
mGluR2 [3]; 10μM modulator, single cells, ([1 mM glutamate + modulator] - [1 mM glutamate]) × 100
  ΔEfficacy, individual cell responses: -3.67 and -2.778 and -15 and -26.6667 and -29.3756 and -15.3219 and -1.127 and -37.1174
mGluR2 [3]; azi-ECL2, 1 mM glutamate + 10 μM modulator, normalized to 1 mM glutamate
  Mean max response (normalized max ΔFRET): 0.84
mGluR2 [3]; azi-ECL2 sensor, + 10 μM modulator
  Hill slope of glutamate titration: 1.07
mGluR2 [3]; azi-ECL2 sensor, Glutamate + 10μM Ro 64-5229, individual values (N=8)
  Live-cell FRET max response normalized to 1mM glutamate: 0.7062 and 0.8468 and 0.9887 and 0.6288 and 0.9633 and 0.9722 and 0.85 and 0.7333
mGluR2 [3]; log[Glutamate] (M) -3
  Mean normalized azi-ECL2 FRET response: 0.8362
mGluR2 [3]; log[Glutamate] (M) -4.1549
  Mean normalized azi-ECL2 FRET response: 0.6516
mGluR2 [3]; log[Glutamate] (M) -4.52288
  Mean normalized azi-ECL2 FRET response: 0.5392
mGluR2 [3]; log[Glutamate] (M) -5
  Mean normalized azi-ECL2 FRET response: 0.3248
mGluR2 [3]; log[Glutamate] (M) -5.39794
  Mean normalized azi-ECL2 FRET response: 0.1335
mGluR2 [3]; log[Glutamate] (M) -5.82391
  Mean normalized azi-ECL2 FRET response: 0.04706
mGluR2 [3]; log[Glutamate] (M) -6.52288
  Mean normalized azi-ECL2 FRET response: 0
mGluR2 [3]; log[Glutamate] (M) -7
  Mean normalized azi-ECL2 FRET response: 0
mGluR2 [3]; log[Glutamate] (M) -7.69897
  Mean normalized azi-ECL2 FRET response: 0
mGluR2 [3]; log[Glutamate] (M) -4.69897
  Mean normalized azi-ECL2 FRET response: 0.5381
mGluR2 [4]; 10 μM NAM
  Effect on receptor activation (calcium imaging) in the presence of glutamate: block receptor activation
mGluR2 [4]; 1mM Glutamate + 90nM Ro 64-5229, individual experiments
  Intracellular Ca2+ Response, % 1mM Glutamate: 79.692% and 78.096% and 66.28%
mGluR2 [4]; Ca2+ response, 1 mM glutamate + 90 nM modulator, ([1 mM glutamate + modulator] - [1 mM glutamate]) × 100
  Mean ΔEfficacy of glutamate: -25.3109
mGluR2 [4]; Ca2+ response, 1 mM glutamate + 90 nM modulator, single replicate
  ΔEfficacy of glutamate, individual experiments: -21.9043 and -33.7198 and -20.3084
mGluR2 [4]; Ca2+ response, glutamate + 90 nM modulator, (([modulator + glutamate]EC50 – [glutamate]EC50)/[glutamate]EC50) × 100
  Mean ΔPotency of glutamate: 160.286
mGluR2 [4]; Ca2+ response, glutamate + 90 nM modulator, single replicate
  ΔPotency of glutamate, individual experiments: 46.8661 and 141.491 and 292.502
mGluR2 [4]; log[Glutamate] (M) -3
  Intracellular Ca2+ Response (normalized to 1mM glutamate), Mean: 0.7469
mGluR2 [4]; log[Glutamate] (M) -3.60206
  Intracellular Ca2+ Response (normalized to 1mM glutamate), Mean: 0.7222
mGluR2 [4]; log[Glutamate] (M) -4.1549
  Intracellular Ca2+ Response (normalized to 1mM glutamate), Mean: 0.5737
mGluR2 [4]; log[Glutamate] (M) -4.52288
  Intracellular Ca2+ Response (normalized to 1mM glutamate), Mean: 0.2233
mGluR2 [4]; log[Glutamate] (M) -5
  Intracellular Ca2+ Response (normalized to 1mM glutamate), Mean: 0.1471
mGluR2 [4]; log[Glutamate] (M) -5.39794
  Intracellular Ca2+ Response (normalized to 1mM glutamate), Mean: 0
mGluR2 [4]; log[Glutamate] (M) -5.82391
  Intracellular Ca2+ Response (normalized to 1mM glutamate), Mean: 0
mGluR2 [4]; log[Glutamate] (M) -6.52288
  Intracellular Ca2+ Response (normalized to 1mM glutamate), Mean: 0
mGluR2 [4]; log[Glutamate] (M) -7
  Intracellular Ca2+ Response (normalized to 1mM glutamate), Mean: 0
